Measured values: PMC4457528, “Identification of Novel Small Molecule Inhibitors of Oncogenic RET Kinase” (PLoS ONE, 2015)
Like-named read-outs stand apart in the source and are kept apart here.

Key:
Test in all cases: KinomeScan kinase panel, single concentration 10 µM
Format in all cases: binding
KinomeScan kinase panel [1] = biological target: T1, KinomeScan kinase panel (Homo sapiens, UniProt P00533, L858R); settings: EGFR(L858R), 10 µM
T1 construct: purchased DiscoveRx (KinomeScan)

KinomeScan kinase panel [2] = biological target: T2, KinomeScan kinase panel (Homo sapiens, UniProt Q16816); settings: PHKG1, 10 µM; read-out: score (%)
T2 construct: purchased DiscoveRx (KinomeScan)
T2 sequence (Q16816 whole entry): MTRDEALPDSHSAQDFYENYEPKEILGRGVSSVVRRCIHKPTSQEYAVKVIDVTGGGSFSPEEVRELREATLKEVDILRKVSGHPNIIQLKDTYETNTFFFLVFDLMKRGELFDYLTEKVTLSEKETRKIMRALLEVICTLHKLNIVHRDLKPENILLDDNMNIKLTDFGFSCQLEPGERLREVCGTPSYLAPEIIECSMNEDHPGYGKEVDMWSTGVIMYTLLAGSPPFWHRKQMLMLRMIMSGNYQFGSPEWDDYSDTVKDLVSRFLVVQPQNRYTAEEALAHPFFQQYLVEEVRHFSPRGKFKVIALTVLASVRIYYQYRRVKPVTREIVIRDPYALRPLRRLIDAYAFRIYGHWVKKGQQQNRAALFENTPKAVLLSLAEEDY

KinomeScan kinase panel [3] = biological target: T3, KinomeScan kinase panel (Homo sapiens, UniProt P54764); settings: EPHA4, 10 µM; read-out: score (%)
T3 construct: purchased DiscoveRx (KinomeScan)
T3 sequence (P54764 20-986): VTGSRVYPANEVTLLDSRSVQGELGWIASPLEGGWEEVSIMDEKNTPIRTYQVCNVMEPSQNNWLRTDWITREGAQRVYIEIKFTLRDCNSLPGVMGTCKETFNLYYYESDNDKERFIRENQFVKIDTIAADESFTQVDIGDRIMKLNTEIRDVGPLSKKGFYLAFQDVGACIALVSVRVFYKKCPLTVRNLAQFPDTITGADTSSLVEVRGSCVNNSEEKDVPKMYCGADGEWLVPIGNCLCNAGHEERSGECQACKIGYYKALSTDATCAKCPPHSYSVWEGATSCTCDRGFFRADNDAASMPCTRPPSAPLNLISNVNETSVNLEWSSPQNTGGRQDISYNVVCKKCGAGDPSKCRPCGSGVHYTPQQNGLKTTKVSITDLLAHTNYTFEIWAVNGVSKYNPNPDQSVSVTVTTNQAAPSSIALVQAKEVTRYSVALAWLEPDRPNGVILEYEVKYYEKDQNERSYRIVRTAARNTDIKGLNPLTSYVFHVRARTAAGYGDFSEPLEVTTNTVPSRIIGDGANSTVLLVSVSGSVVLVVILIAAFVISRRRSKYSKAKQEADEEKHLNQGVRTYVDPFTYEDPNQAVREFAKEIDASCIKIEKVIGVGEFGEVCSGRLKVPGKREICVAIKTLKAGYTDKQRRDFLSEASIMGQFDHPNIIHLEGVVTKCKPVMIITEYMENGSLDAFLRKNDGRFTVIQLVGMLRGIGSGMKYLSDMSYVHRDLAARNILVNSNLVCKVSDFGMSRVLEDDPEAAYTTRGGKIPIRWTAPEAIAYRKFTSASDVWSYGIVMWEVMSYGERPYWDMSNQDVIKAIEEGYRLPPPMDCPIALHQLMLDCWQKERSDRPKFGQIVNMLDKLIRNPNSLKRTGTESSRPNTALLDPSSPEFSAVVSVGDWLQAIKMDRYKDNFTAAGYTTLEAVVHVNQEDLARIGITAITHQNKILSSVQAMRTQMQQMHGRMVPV

KinomeScan kinase panel [4] = biological target: T4, KinomeScan kinase panel (Homo sapiens, UniProt P17948); settings: FLT1, 10 µM; read-out: score (%)
T4 construct: purchased DiscoveRx (KinomeScan)

KinomeScan kinase panel [5] = biological target: T5, KinomeScan kinase panel (Homo sapiens, UniProt O00238); settings: BMPR1B, 10 µM; read-out: score (%)
T5 construct: purchased DiscoveRx (KinomeScan)
T5 sequence (O00238 14-502): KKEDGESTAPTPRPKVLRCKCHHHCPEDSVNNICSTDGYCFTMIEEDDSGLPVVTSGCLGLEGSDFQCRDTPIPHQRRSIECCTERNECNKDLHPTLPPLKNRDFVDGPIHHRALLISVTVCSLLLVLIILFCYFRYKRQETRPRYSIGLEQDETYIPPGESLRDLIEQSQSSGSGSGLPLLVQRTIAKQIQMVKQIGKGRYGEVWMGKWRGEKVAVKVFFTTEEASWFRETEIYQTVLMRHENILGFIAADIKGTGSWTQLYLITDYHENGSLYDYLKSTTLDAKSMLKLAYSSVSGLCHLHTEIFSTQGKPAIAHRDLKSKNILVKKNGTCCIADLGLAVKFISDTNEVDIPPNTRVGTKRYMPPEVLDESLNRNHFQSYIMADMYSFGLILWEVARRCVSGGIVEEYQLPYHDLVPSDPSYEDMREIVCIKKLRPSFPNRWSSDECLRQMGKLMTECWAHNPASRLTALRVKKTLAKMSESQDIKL

KinomeScan kinase panel [6] = biological target: T6, KinomeScan kinase panel (Homo sapiens, UniProt Q9UBE8); settings: NLK, 10 µM; read-out: score (%)
T6 construct: purchased DiscoveRx (KinomeScan)
T6 sequence (Q9UBE8 1-527): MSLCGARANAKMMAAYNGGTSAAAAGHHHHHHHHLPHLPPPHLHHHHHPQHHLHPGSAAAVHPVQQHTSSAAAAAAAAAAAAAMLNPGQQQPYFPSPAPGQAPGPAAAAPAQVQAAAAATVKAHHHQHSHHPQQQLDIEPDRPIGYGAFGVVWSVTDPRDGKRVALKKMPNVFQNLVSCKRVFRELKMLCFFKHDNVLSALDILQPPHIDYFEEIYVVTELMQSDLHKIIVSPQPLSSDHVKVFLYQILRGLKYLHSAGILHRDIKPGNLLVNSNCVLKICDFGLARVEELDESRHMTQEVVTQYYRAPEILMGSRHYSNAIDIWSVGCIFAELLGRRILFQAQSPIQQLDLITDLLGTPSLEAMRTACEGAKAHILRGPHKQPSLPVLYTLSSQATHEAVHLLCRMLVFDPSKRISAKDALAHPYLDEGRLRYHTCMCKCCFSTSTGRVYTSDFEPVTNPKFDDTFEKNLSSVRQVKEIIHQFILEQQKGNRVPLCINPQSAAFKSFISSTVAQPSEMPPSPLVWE

KinomeScan kinase panel [7] = biological target: T7, KinomeScan kinase panel (Homo sapiens, UniProt Q9P289); settings: MST4, 10 µM; read-out: score (%)
T7 construct: purchased DiscoveRx (KinomeScan)
T7 sequence (Q9P289 whole entry): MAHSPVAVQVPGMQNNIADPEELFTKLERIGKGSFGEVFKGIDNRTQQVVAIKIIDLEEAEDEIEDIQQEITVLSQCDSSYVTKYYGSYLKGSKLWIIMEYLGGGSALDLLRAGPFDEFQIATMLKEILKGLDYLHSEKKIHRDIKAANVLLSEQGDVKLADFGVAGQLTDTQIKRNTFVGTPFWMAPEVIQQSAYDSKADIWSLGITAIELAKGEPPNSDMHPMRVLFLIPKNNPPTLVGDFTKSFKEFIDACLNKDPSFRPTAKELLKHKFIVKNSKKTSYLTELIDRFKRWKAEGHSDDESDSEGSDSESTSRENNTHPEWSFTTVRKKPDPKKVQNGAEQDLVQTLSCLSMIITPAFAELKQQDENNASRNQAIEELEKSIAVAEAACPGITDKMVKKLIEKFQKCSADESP

KinomeScan kinase panel [8] = biological target: T8, KinomeScan kinase panel (Homo sapiens, UniProt Q8IU85); settings: CAMK1D, 10 µM; read-out: score (%)
T8 construct: purchased DiscoveRx (KinomeScan)

KinomeScan kinase panel [9] = biological target: T9, KinomeScan kinase panel (Homo sapiens, UniProt O14757); settings: CHEK1, 10 µM
T9 construct: purchased DiscoveRx (KinomeScan)
T9 sequence (O14757 1-476): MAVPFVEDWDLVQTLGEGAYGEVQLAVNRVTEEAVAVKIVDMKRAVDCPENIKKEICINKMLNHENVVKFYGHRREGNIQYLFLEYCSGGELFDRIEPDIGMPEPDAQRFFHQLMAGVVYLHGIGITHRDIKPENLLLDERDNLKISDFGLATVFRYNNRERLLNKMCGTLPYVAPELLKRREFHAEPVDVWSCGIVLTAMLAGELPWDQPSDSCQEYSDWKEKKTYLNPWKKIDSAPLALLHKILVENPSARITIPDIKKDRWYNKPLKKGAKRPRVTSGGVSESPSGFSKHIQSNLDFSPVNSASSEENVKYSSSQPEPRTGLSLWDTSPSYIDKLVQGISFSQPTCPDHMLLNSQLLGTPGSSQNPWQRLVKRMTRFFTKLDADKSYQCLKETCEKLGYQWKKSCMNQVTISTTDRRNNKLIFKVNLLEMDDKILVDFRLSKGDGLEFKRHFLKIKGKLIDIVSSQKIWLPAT

KinomeScan kinase panel [10] = biological target: T10, KinomeScan kinase panel (Homo sapiens, UniProt P42680); settings: 10 µM, read-out: score (%)
T10 construct: purchased DiscoveRx (KinomeScan)
T10 sequence (P42680 1-631): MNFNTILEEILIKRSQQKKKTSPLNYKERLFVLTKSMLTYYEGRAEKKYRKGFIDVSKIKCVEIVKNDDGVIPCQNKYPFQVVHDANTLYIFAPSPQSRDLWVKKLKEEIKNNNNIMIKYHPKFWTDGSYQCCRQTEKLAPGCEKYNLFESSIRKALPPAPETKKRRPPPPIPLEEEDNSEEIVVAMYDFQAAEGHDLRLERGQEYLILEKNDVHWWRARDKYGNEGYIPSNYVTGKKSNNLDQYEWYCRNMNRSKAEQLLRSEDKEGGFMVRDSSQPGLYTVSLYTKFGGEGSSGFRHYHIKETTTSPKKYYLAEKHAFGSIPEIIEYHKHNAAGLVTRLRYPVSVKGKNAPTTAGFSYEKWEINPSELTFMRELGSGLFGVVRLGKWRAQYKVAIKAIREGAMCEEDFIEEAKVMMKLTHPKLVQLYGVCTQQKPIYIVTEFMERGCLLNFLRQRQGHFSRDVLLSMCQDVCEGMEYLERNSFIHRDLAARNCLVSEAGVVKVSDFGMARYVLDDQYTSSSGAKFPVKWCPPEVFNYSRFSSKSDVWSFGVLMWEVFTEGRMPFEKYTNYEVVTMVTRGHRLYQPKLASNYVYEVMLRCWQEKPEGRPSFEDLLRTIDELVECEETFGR

KinomeScan kinase panel [11] = biological target: T11, KinomeScan kinase panel (Homo sapiens, UniProt Q14289); settings: read-out: score (%)
T11 construct: purchased DiscoveRx (KinomeScan)

KinomeScan kinase panel [12] = biological target: T12, KinomeScan kinase panel (Homo sapiens, UniProt P45984); settings: JNK2, 10 µM
T12 construct: purchased DiscoveRx (KinomeScan)

KinomeScan kinase panel [13] = biological target: T13, KinomeScan kinase panel (Homo sapiens, UniProt Q02779); settings: MLK2, 10 µM; read-out: score (%)
T13 construct: purchased DiscoveRx (KinomeScan)
T13 sequence (Q02779 whole entry): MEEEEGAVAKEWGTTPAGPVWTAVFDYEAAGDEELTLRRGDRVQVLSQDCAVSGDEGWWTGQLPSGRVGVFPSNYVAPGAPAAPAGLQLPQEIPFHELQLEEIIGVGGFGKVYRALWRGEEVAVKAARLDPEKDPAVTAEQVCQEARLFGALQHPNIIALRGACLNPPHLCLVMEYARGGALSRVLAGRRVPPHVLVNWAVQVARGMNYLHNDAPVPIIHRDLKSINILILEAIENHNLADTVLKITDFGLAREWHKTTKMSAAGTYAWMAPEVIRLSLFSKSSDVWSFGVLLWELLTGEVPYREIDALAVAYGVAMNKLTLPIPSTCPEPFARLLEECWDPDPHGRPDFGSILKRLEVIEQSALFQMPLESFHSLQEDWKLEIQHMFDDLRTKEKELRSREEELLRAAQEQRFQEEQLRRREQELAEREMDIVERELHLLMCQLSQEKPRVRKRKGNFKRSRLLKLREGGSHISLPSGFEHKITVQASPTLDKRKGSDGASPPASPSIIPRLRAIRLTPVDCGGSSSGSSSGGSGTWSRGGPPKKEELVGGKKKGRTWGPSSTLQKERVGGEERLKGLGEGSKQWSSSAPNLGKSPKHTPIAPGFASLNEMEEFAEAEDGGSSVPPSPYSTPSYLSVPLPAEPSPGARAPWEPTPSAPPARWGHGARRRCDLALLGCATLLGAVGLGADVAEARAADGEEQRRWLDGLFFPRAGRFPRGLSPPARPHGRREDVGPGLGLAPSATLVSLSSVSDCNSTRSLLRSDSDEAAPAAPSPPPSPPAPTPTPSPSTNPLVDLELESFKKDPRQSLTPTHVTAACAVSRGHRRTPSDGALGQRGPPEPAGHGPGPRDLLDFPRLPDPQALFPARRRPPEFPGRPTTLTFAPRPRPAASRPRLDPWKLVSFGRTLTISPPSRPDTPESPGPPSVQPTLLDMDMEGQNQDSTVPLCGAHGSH

KinomeScan kinase panel [14] = biological target: T14, KinomeScan kinase panel (Homo sapiens, UniProt Q13153); settings: PAK1, 10 µM; read-out: score (%)
T14 construct: purchased DiscoveRx (KinomeScan)
T14 sequence (Q13153 whole entry): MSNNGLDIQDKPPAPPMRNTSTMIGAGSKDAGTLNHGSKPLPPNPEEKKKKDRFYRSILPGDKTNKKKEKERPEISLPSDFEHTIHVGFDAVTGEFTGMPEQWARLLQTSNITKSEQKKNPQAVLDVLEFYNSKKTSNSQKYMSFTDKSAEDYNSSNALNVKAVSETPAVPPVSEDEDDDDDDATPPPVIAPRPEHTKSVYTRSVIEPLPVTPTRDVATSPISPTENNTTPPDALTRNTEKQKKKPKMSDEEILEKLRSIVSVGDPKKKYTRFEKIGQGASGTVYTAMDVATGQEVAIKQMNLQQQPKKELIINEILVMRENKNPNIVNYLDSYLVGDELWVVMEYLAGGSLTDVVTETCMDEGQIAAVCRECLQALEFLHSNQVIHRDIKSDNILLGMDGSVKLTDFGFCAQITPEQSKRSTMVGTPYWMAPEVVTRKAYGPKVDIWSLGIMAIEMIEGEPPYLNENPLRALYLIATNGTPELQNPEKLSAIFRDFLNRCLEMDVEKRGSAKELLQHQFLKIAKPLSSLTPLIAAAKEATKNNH

T1 sequence (P00533 25-1210 L858R): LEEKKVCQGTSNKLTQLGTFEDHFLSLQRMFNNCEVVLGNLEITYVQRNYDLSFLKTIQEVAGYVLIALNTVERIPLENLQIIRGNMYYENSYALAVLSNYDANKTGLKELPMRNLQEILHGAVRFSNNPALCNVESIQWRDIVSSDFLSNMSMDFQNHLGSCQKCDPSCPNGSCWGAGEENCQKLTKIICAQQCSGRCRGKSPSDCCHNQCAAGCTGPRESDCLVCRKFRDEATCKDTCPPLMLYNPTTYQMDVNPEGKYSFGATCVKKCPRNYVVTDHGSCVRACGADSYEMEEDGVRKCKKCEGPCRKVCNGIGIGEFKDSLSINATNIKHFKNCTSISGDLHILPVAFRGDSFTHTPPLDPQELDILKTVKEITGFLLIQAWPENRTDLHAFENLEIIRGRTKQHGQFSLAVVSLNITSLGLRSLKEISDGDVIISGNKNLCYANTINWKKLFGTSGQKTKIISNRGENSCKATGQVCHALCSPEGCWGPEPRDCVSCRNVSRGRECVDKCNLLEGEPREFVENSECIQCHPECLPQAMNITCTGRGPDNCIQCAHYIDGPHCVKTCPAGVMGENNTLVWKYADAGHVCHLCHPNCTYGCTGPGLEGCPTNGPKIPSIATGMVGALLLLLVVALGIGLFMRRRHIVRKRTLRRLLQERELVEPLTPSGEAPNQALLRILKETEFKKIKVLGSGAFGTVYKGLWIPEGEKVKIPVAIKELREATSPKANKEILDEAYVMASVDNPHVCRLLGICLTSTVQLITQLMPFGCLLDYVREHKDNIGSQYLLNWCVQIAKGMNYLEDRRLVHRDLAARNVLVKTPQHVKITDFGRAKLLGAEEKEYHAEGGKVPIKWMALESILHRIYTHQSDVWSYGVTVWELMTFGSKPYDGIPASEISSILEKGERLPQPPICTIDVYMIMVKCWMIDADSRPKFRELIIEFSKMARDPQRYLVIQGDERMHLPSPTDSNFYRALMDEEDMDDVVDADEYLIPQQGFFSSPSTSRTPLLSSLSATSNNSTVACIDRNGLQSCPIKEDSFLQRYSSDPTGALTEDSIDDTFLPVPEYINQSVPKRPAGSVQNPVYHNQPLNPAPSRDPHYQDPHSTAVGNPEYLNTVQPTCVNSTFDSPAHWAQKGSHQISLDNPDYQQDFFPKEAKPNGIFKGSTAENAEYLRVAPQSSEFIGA

remaining binding at 10 µM (KinomeScan kinase panel [10]; TEC) [%]	remaining binding at 10 µM (KinomeScan kinase panel [11]; PTK2B, 10 µM) [%]	SMILES	score (%) (KinomeScan kinase panel [1])	remaining binding at 10 µM (KinomeScan kinase panel [2]) [%]	remaining binding at 10 µM (KinomeScan kinase panel [3]) [%]	remaining binding at 10 µM (KinomeScan kinase panel [4]) [%]	remaining binding at 10 µM (KinomeScan kinase panel [5]) [%]	remaining binding at 10 µM (KinomeScan kinase panel [6]) [%]	remaining binding at 10 µM (KinomeScan kinase panel [7]) [%]	remaining binding at 10 µM (KinomeScan kinase panel [8]) [%]	score (%) (KinomeScan kinase panel [9])	remaining binding at 10 µM (KinomeScan kinase panel [10]; kinase TEC) [%]	remaining binding at 10 µM (KinomeScan kinase panel [11]; PYK2, 10 µM) [%]	score (%) (KinomeScan kinase panel [12])	remaining binding at 10 µM (KinomeScan kinase panel [13]) [%]	remaining binding at 10 µM (KinomeScan kinase panel [14]) [%]	remaining binding at 10 µM (KinomeScan kinase panel [11]; kinase PYK2, 10 µM) [%]
		CCN1CCN(Cc2ccc(NC(=O)c3ccc(C)c(NC(=O)c4cncc(-c5cccs5)c4)c3)cc2C(F)(F)F)CC1 [ALW-II-41-27]	0.25	> 30	0	1	> 30	7.2	12	> 30	nb (Hits values higher than 30% were considered negative (no binding: nb))	1.7	2.4	0.25	> 30	> 30	
1.2	5.5	CCN1CCN(Cc2ccc(NC(=O)c3ccc(C)c(/C=C/c4cnc5[nH]ccc5c4Cl)c3)cc2C(F)(F)F)CC1 [HG-6-63-01, (E)-3-(2-(4-chloro-1H-pyrrolo[2,3-b]pyridin-5-yl)vinyl)-N-(4-((4-ethylpiperazin-1-yl)methyl)-3-(trifluoromethyl)phenyl)-4-methylbenzamide]	0.4	> 30	0.55	0.2	> 30	6.8	32	> 30	25%			1.1	20	> 30	
		CCN1CCN(Cc2ccc(NC(=O)c3ccc(C)c(C#Cc4cccnc4)c3)cc2C(F)(F)F)CC1 [XMD15-44]	4	88	0	0.5	> 30	8.2	21	> 30	nb (Hits values higher than 30% were considered negative (no binding: nb))	3.7		0	> 30	81	0.4
